{"source": "paper PMC5503534", "about": "“Stable aneuploid tumors cells are more sensitive to TTK inhibition than chromosomally unstable cell lines” (Oncotarget, 2017)", "key": {"[1]": {"tested_on": "MG-63 osteosarcoma cell line", "conditions": "three day cell proliferation assay; cited from earlier work"}, "full-length Aurora B": {"biological_target": "T1, full-length Aurora B (Homo sapiens, UniProt Q96GD4)", "T1 construct": "to the kinase domain of TTK and full-length Aurora B; purchased Carna Biosciences, Inc., Kobe, Japan; host or cells: Sf9 insect cells", "T1 sequence (Q96GD4 whole entry, the tested form may be a part)": "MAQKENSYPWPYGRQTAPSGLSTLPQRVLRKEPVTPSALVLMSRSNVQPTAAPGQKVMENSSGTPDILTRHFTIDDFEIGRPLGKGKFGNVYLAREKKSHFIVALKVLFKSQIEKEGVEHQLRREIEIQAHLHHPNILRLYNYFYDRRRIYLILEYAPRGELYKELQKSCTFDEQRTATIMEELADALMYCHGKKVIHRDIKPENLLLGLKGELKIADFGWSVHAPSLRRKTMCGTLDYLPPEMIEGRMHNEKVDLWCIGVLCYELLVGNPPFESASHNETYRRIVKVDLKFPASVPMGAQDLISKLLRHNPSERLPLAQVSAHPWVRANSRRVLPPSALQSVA", "experiment": "Surface plasmon resonance binding kinetics, Aurora B", "conditions": "SPR", "from_the_text": "Originally, the compound was identified in a phenotypic screen for molecules that can induce stem-cell like phenotypes. Later this property was attributed to its ability to inhibit the mitotic kinase Aurora B [39]."}, "[2]": {"tested_on": "HCT 116 colon carcinoma cell line", "conditions": "three day cell proliferation assay; cited from earlier work"}, "[3]": {"tested_on": "HCT 116, HPT1, HPT2 and HPT4 cells", "experiment": "Time-lapse microscopy, HCT 116 and post-tetraploid clones", "type": "cell-based, human", "conditions": "100 nM, post-tetraploid clones and parental cell line", "protocol": "(§1) HCT 116 diploid and tetraploids stably expressed green fluorescent protein-tagged histone 2B (H2B-GFP). All other cell lines were pre-incubated with SiR-DNA (Spirochrome, Switzerland) in order to visualize DNA. Cells were cultured in Leibovitz L15 CO2-independent cell culture medium in 6-well glass bottom chamber (LabTek Corp., Australia) and synchronized by treatment with 2 mM thymidine. After 24 hours of synchronization, and 4 hours before the start of the imaging experiment, medium was replaced by medium without thymidine. […] Image Z-stacks were acquired with 3-μm intervals using a sCMOS camera (DeltaVision RT; Applied Precision, GE Healthcare, Issaquah, WA) and processed using ImageJ software (NIH, Bethesda, MD, USA). Chromosome mis-segregation phenotypes co-occurred and many combinations existed. For clarity, all the events were scored and included: more than two phenotypes, mitotic slippage, DNA bridge, micro-nuclei and multipolar spindle."}, "[4]": {"tested_on": "66 cancer cell lines (44 cell lines)", "design": "method as in earlier work", "conditions": "cited from earlier work"}, "[5]": {"tested_on": "pediatric T-ALL patient cell samples", "experiment": "Viability assays with T-ALL patient samples", "type": "cell-based, human", "conditions": "read-out: IC50", "protocol": "Written informed consent was obtained from the parents or legal guardians of each T-ALL patient to use excess diagnostic material for research purposes. The study was performed in accordance with the Institutional Review Board of the Erasmus Medical Center Rotterdam (The Netherlands) and in accordance with the Declaration of Helsinki. Leukemic cells were harvested from blood or bone marrow samples and were enriched to ≥ 90% purity.\n(§2) Cell proliferation assays were carried out as described using ATPlite 1step™ (Perkin Elmer, Groningen, The Netherlands). Exposure time was 72 or 120 hours as indicated in the Legends to the Figures. Percentage growth was calculated, relative to the growth of unexposed cells, and relative IC50s were fitted using a four-parameter logistics curve (XLfit 5.3, IDBS). For Figure 4A and 7 dose response curves were redrawn in Prism. To compare the inhibitory potency of compounds in proliferation assays with HCT 116 parental and tetraploid clones, pIC50 (−^10logIC50) values were compared in three independent experiments. A two-tailed Student's t-test was performed to determine whether differences in sensitivity (ΔpIC50) were statistically significant. Caspase 3/7 activity of cancer cells was measured using Caspase-Glo 3/7 Assay kit (cat no. G8093, Promega, Madison USA). Viability of T-ALL cell samples was determined using ATPlite and exposure of 72 hours as described previously."}, "[6]": {"tested_on": "LoVo colorectal adenocarcinoma cell line", "experiment": "Cell proliferation assay (ATPlite), LoVo", "type": "cell-based, human", "conditions": "5 day proliferation assay", "protocol": "as §2"}, "[7]": {"tested_on": "DoTc2 4510 cervix carcinoma cell line", "experiment": "Cell proliferation assay (ATPlite), DoTc2 4510", "type": "cell-based, human", "conditions": "5 day proliferation assay", "protocol": "as §2"}, "[8]": {"tested_on": "HCT 116, LoVo, A-172, DoTc2 4510, MG-63, OVCAR-3 cell lines", "experiment": "Time-lapse microscopy, sensitive and resistant cell lines", "type": "cell-based, human", "conditions": "100 nM", "protocol": "The activity of the mitotic checkpoint was measured by the time between the breakdown of the nuclear envelop and the onset of anaphase (Figure 2A). Under the vehicle-treated control conditions, all sensitive cells were able to accomplish a normal mitosis in approximately 35 minutes (HCT 116, 30 min; LoVo, 41 min; A172, 36 min; Figure 2A and Supplementary Figure 1). In contrast, the three resistant cell lines spent more time in mitosis, i.e., almost one hour (MG-63, 53 min), or up to 2 and 3 hours (DoTc2 4510, 122 min; OVCAR-3, 173 min).\nas §1"}, "[9]": {"tested_on": "HCT 116 vs HPT1, -2 and -4", "experiment": "Drug sensitivity analysis, HCT116 diploid versus tetraploids", "type": "cell-based, human", "protocol": "as §2"}, "[10]": {"conditions": "toxicity studies in mice; cited from earlier work"}, "[11]": {"tested_on": "OVCAR-3 ovary adenocarcinoma cell line", "experiment": "Cell proliferation assay (ATPlite), OVCAR-3", "type": "cell-based, human", "conditions": "5 day proliferation assay", "protocol": "as §2"}, "[12]": {"tested_on": "post-tetraploid HPT1 cells", "experiment": "Cell proliferation assay, post-tetraploid HPT1", "type": "cell-based, human", "conditions": "HPT1, five days", "protocol": "Cancer cell lines and hTERT-RPE1 retinal pigment epithelial cells were purchased from the American Type Culture Collection (ATCC) (Manassas, VA, U.S.A.) from 2011 to 2014 [41] and cultured in ATCC-recommended media. All experiments were carried out within nine passages of the original vials from ATCC who authenticated the cancer cell lines by short tandem repeat analysis. We verified the mutant status of seven frequently mutated cancer genes (i.e., BRAF, CDKN2A, CTNNB1, EGFR, KRAS, PIK3CA and TP53) by full exome or targeted sequencing. Sequencing results were compared to COSMIC version 75 of the Genomics of Drug Sensitivity in Cancer data base and provided additional authentication of the identity of the cell lines. The isolation and characterization of post-tetraploid clones from HCT 116 has been described previously. The mutation status of the CDKN2A, CTNNB1, KRAS and PIK3CA genes were confirmed by sequence analysis in both the HCT 116 parental cell line and post-tetraploid clones. All experiments were carried out within nine passages of the original cell stocks that were transferred from the Max Planck Institute of Biochemistry (Martinsried, Germany) to Netherlands Translational Research Center.\nas §2"}}, "note": "Where two headings read alike, the source gives them in different places.", "data": [{"smiles": "CCc1cccc(CC)c1NC(=O)c1ccn2c1CCc1cnc(Nc3ccc(N4CCN(C)CC4)cc3OC)nc1-2", "note": "[NTRC 0066-0]", "values": [{"measurement": "IC50", "setting": "[1]", "result": 135, "unit": "nM"}, {"measurement": "Kd", "setting": "full-length Aurora B; KD = kd/ka", "result": 907, "unit": "nM"}, {"measurement": "ka", "setting": "full-length Aurora B; geometric average", "result": 13400, "unit": "M⁻¹ s⁻¹"}, {"measurement": "kd", "setting": "full-length Aurora B; geometric average", "result": 0.0122, "unit": "s⁻¹"}, {"measurement": "IC50", "setting": "[2]", "result": 37, "unit": "nM"}, {"measurement": "time-in-mitosis", "setting": "[3]", "result": 20, "unit": "min"}, {"measurement": "IC50", "setting": "[4]; 3 days, geometric average in 44 cell lines", "result": 67, "unit": "nM"}, {"measurement": "IC50", "setting": "[4]; 5 days, geometric average in 66 cancer cell lines", "result": 98, "unit": "nM"}, {"measurement": "IC50", "setting": "[5]; all ten T-ALL patient samples, three days", "result": "≥ 5", "unit": "µM"}, {"measurement": "IC50", "setting": "[5]; patient sample 491, three-day assay", "result": 5, "unit": "µM"}, {"measurement": "IC50", "setting": "[5]; patient sample 1033, three-day assay", "result": 5.1, "unit": "µM"}, {"measurement": "IC50", "setting": "[5]; patient sample 1816, three-day assay", "result": 8.1, "unit": "µM"}, {"measurement": "IC50", "setting": "[5]; patient sample 2323, three-day assay", "result": 7.1, "unit": "µM"}, {"measurement": "IC50", "setting": "[5]; patient sample 3594, three-day assay", "result": 4.8, "unit": "µM"}, {"measurement": "IC50", "setting": "[5]; patient sample 3852, three-day assay", "result": 4.9, "unit": "µM"}, {"measurement": "IC50", "setting": "[5]; patient sample 4023, three-day assay", "result": 5.4, "unit": "µM"}, {"measurement": "IC50", "setting": "[5]; patient sample 4126, three-day assay", "result": 9.2, "unit": "µM"}, {"measurement": "IC50", "setting": "[5]; patient sample 4992, three-day assay", "result": 4.9, "unit": "µM"}, {"measurement": "IC50", "setting": "[5]; patient sample 10110, three-day assay", "result": 4.5, "unit": "µM"}, {"measurement": "IC50", "setting": "[6]", "result": 35, "unit": "nM"}, {"measurement": "IC50", "setting": "[7]", "result": 225, "unit": "nM"}, {"measurement": "time-in-mitosis", "setting": "[8]; all cell lines, nuclear envelope breakdown to anaphase onset", "result": "approximately 20 min"}, {"measurement": "defective anaphases", "setting": "[8]; resistant cell lines", "result": "63–71%"}, {"measurement": "defective anaphases", "setting": "[8]; sensitive cell lines", "result": "at least 60%"}, {"measurement": "Δeff. (%)", "setting": "[9]; HCT 116 vs HPT1, -2 and -4", "result": "−33", "unit": "%"}, {"measurement": "Phenotype (efficacy)", "setting": "[9]; HCT 116 vs HPT1, -2 and -4, based on % effect", "result": "resistant"}, {"measurement": "Phenotype (potency)", "setting": "[9]; HCT 116 vs HPT1, -2 and -4, 'resistant' indicates that tetraploids are resistant", "result": "sensitive"}, {"measurement": "ΔpIC50", "setting": "[9]; average log shift in sensitivity between parental and tetraploids", "result": "−0.01"}, {"measurement": "effect on bone marrow or blood cell count (hematological toxicity)", "setting": "[10]", "result": "no effect on bone marrow or blood cell count"}, {"measurement": "IC50", "setting": "[11]", "result": 268, "unit": "nM"}, {"measurement": "Efficacy (%)", "setting": "[12]; average of three experiments", "result": 59, "unit": "%"}, {"measurement": "IC50", "setting": "[12]; geometric average of three experiments", "result": 40, "unit": "nM"}]}]}
